Holding throughout (experiment): Kinase selectivity, P33-radiolabeled assay
Holding throughout (assay type): biochemical

Experiment [1] addresses T1, STK38L/NDR2 (Homo sapiens, UniProt Q9Y2H1).
T1 construct: purchased Reaction Biology Corp
As to conditions: 10 μM ATP. The essentials:
(§1)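 Percent residual kinase activity versus DMSO is reported. Conditions: compound at 10 μM, ATP at 10 μM, n = 2.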

The target in experiment [2] is T2, LCK2/ICK (Homo sapiens, UniProt Q9UPZ9).
T2 construct: purchased Reaction Biology Corp
T2 sequence (Q9UPZ9 1-632): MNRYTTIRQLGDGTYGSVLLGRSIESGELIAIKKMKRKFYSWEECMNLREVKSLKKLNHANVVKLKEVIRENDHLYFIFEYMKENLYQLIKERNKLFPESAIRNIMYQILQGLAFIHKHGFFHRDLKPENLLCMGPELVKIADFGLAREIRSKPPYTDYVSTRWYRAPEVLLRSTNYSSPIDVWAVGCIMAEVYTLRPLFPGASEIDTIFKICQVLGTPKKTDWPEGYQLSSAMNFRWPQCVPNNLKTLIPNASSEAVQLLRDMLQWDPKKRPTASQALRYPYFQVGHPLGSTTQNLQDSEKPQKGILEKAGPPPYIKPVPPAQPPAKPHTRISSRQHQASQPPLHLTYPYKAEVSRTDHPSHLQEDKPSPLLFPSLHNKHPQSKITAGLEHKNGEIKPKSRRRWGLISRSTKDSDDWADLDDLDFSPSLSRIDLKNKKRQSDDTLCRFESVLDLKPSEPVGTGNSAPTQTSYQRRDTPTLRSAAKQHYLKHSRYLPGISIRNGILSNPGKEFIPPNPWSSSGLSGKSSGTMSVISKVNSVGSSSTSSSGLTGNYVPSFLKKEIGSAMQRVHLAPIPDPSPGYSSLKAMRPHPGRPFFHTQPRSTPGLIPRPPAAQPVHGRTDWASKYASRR
As to conditions: 10 μM ATP. In outline:
as §1

Experiment [3] addresses T3, PKN3/PRK3 (Homo sapiens, UniProt Q6P5Z2).
T3 construct: purchased Reaction Biology Corp
Conditions: 10 μM ATP. In outline: as §1

The target of experiment [4] is T4, COT1/MAP3K8 (Homo sapiens, UniProt P41279).
T4 construct: purchased Reaction Biology Corp
T4 sequence (P41279 whole entry): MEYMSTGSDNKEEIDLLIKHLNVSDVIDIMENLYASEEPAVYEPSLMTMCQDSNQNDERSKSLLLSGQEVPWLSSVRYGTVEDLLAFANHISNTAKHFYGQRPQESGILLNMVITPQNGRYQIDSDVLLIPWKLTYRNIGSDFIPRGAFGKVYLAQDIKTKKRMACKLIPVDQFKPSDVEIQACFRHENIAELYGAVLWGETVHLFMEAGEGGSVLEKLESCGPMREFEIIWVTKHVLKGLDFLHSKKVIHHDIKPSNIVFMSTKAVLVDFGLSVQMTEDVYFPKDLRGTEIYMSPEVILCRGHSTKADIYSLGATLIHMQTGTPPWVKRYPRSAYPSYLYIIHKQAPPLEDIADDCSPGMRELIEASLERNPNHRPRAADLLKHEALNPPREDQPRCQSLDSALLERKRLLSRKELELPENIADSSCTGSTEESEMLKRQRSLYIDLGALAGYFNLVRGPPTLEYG
As to conditions: 10 μM ATP. The essentials:
as §1

In experiment [5] the target is T5, BRAF (Homo sapiens, UniProt P15056).
T5 construct: purchased Reaction Biology Corp
T5 sequence (P15056 whole entry): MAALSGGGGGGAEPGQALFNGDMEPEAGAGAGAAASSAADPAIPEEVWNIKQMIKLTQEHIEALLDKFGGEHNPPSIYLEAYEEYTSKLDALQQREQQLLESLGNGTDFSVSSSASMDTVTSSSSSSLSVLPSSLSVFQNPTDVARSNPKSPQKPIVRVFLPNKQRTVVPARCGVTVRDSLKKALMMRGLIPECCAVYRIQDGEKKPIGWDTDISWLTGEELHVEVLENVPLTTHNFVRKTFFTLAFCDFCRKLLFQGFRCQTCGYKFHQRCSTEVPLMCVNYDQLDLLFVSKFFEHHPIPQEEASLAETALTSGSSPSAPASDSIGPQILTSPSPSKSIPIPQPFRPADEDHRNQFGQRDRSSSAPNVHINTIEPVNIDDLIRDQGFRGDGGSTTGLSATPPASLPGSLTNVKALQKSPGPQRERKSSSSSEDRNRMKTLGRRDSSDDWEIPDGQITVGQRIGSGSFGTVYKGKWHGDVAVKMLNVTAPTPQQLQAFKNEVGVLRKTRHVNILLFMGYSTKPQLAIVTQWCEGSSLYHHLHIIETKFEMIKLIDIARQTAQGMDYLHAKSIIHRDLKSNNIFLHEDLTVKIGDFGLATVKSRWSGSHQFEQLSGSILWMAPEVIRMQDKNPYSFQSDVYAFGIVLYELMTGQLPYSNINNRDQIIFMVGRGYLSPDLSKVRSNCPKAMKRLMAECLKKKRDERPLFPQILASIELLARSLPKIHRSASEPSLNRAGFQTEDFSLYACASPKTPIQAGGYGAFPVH
Conditions: 10 μM ATP. In outline: as §1

The target in experiment [6] is T6, PKCmu/PRKD1 (Homo sapiens, UniProt Q15139).
T6 construct: purchased Reaction Biology Corp
T6 sequence (Q15139 1-912): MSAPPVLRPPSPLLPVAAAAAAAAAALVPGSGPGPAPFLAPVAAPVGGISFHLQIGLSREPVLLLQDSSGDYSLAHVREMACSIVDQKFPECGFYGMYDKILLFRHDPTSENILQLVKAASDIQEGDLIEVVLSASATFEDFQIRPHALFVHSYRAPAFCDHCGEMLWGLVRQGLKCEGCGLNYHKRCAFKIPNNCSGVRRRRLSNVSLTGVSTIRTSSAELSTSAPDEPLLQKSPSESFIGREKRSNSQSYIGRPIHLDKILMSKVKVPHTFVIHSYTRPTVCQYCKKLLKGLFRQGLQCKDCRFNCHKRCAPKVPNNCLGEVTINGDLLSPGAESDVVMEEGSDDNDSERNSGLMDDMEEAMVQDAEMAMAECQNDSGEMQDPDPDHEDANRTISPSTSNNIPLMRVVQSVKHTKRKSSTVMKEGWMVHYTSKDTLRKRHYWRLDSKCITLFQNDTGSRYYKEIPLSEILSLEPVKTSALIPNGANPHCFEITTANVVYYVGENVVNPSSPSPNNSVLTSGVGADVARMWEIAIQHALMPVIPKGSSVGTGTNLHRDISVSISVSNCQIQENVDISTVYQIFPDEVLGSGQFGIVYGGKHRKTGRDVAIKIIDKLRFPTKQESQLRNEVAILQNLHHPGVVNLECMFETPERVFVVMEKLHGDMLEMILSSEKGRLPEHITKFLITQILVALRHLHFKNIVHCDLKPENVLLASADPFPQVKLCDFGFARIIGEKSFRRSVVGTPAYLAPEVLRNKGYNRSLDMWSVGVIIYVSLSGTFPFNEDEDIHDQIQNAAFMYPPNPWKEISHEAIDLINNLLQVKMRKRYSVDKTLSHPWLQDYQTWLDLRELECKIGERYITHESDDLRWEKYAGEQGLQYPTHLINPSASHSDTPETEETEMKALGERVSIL
In outline:
as §1

[7] abbreviates: read-out: % Enzyme Activity (relative to DMSO controls) AVG.
Where [8] appears, read: read-out: % Enzyme Activity (relative to DMSO controls) Data 1.
[9] abbreviates: read-out: % Enzyme Activity (relative to DMSO controls) Data 2.

Like-named read-outs stand apart in the source and are kept apart here.

T3 sequence (Q6P5Z2 whole entry): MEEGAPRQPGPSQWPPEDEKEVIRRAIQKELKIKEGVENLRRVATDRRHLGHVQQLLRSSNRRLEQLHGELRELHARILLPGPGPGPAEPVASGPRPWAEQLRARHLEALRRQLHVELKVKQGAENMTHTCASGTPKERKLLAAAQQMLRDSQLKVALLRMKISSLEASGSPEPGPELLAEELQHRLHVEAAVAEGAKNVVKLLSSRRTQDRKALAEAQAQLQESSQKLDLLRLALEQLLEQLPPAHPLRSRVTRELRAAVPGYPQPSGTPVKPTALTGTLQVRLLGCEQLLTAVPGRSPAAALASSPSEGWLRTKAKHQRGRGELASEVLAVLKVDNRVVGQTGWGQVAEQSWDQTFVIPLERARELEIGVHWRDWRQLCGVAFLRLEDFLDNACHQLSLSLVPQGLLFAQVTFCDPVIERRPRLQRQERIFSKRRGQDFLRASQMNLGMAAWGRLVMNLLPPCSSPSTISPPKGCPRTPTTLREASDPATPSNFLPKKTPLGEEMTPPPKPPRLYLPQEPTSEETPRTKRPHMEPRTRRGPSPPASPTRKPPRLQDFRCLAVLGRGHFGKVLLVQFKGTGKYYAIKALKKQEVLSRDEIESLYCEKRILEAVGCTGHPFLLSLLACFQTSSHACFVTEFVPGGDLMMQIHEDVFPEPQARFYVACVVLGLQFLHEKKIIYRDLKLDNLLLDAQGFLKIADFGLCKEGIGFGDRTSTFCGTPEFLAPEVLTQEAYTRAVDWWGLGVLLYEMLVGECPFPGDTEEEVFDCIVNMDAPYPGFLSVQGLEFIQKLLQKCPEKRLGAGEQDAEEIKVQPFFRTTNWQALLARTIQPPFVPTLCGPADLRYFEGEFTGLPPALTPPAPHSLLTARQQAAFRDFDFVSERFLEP
T1 sequence (Q9Y2H1 whole entry): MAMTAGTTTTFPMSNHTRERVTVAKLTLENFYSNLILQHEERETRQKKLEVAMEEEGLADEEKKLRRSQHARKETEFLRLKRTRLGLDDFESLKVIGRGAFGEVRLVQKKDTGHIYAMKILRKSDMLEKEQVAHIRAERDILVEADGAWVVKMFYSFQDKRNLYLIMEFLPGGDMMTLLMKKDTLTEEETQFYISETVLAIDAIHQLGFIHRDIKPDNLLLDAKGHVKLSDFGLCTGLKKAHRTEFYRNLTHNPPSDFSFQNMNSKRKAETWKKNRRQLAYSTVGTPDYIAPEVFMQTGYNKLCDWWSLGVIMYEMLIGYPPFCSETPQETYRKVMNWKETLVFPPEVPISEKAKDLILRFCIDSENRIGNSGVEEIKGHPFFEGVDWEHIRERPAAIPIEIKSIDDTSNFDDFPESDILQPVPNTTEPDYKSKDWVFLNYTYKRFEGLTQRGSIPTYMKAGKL

Regarding `CC(C)(C)C(=O)N1N=CC[C@H]1c1ccccc1` [GSK′963], the remaining activity at 10 µM turned out to be 99.8% in experiment [1] (setting [7]); 101% in experiment [1] (setting [8]); 98.1% in experiment [1] (setting [9]); 101% in experiment [2] (setting [7]); 100% in experiment [2] (setting [8]); 101% in experiment [2] (setting [9]). In addition, the remaining activity at 10 µM in experiment [3] (setting [7]) was found to be 94%; in experiment [3] (setting [8]) it was 92.9%; in experiment [3] (setting [9]) it was 95.1%; in experiment [4] (setting [7]), 87.1%; in experiment [4] (setting [8]) it was 86.6%; in experiment [4] (setting [9]), 87.5%. Further, the remaining activity at 10 µM in experiment [5] (setting [7]) was found to be 89.4%; in experiment [5] (setting [8]) it was 89.4%; in experiment [5] (setting [9]), 89.4%; in experiment [6] (10 uM, 10 μM ATP, read-out: % Enzyme Activity (relative to DMSO controls) Data 1), 99.9%; in experiment [6] (10 uM, 10 μM ATP, read-out: % Enzyme Activity (relative to DMSO controls) Data 2) it was 103%; in experiment [6] (setting [7]), 101%.

The record behind these values is publication PMC4979471 (Cell Death Discovery, 2015).
